US20220356174A1, “PYRIDIN-2-ONE COMPOUNDS USEFUL AS SMARCA2 ANTAGONISTS” (Epizyme, Inc., priority 2018, published 2022)

What was measured:
[1] = target: T1, FL-SMARCA2 (full-length human SMARCA2 isoform 1) (Homo sapiens, UniProt P51531); assay: SMARCA2 ATPase activity assay (ADP-Glo, chicken mononucleosome substrate); assay type: biochemical; settings: Table 3.1; ATPase assay, enzyme 5 nM, ATP 250 uM, chicken mononucleosome 10 nM, 30 min preincubation
T1 construct: FLAG tag (YKDDDDK) (C); made in house; host or cells: Sf21 insect cells (baculovirus, pFastBacI)

FL-SMARCA4 = FL-SMARCA4 (Homo sapiens, UniProt P51532); assay: SMARCA4 ATPase activity assay (ADP-Glo, chicken mononucleosome substrate); settings: FL-SMARCA4 IC50, Table 3.2; ATPase assay, enzyme 5 nM, ATP 250 uM, chicken mononucleosome 10 nM, 30 min preincubation
FL-SMARCA4, sequence (P51532 whole entry): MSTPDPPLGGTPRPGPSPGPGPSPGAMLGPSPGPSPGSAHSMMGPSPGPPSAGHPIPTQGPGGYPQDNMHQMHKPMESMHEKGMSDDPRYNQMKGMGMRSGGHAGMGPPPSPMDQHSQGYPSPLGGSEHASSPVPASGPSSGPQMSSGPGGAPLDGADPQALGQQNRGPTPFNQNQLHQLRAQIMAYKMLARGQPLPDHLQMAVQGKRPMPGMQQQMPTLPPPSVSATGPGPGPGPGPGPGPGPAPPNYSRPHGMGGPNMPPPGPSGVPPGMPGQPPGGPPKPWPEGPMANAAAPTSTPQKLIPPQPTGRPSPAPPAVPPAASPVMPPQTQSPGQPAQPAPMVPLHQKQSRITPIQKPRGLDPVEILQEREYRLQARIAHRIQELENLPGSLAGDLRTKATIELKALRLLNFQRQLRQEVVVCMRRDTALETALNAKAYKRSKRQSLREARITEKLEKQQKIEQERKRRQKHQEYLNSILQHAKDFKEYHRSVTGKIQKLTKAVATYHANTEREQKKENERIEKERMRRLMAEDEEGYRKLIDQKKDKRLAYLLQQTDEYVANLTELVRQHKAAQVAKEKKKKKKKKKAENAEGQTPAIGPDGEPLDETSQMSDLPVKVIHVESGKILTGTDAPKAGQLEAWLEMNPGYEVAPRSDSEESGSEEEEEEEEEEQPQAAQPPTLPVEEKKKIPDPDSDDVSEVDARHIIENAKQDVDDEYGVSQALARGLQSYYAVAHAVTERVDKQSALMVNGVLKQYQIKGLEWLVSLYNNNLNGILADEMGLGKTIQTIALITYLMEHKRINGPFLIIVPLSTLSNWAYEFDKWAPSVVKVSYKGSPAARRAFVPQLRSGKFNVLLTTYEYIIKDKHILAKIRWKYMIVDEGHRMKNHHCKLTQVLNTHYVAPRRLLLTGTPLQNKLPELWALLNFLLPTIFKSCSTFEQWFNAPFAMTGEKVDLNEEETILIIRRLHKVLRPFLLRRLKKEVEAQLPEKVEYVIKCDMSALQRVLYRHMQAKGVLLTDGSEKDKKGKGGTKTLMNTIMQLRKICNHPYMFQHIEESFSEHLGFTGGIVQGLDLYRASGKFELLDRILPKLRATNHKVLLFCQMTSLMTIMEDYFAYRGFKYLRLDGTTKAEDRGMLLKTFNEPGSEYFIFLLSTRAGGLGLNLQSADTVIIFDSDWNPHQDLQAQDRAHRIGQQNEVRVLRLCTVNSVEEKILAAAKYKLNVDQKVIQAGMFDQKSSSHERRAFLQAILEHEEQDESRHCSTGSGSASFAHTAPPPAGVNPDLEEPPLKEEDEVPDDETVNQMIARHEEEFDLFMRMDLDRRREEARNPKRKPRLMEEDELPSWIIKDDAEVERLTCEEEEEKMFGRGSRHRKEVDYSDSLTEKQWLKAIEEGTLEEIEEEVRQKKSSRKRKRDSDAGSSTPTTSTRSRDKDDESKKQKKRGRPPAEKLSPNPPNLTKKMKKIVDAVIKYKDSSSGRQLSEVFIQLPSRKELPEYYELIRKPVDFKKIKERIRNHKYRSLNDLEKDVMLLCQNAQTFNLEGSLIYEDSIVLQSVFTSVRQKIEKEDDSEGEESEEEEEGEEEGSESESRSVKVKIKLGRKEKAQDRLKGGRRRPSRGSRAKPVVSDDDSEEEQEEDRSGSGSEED

T1 sequence (P51531 with tags, fused parts or gaps): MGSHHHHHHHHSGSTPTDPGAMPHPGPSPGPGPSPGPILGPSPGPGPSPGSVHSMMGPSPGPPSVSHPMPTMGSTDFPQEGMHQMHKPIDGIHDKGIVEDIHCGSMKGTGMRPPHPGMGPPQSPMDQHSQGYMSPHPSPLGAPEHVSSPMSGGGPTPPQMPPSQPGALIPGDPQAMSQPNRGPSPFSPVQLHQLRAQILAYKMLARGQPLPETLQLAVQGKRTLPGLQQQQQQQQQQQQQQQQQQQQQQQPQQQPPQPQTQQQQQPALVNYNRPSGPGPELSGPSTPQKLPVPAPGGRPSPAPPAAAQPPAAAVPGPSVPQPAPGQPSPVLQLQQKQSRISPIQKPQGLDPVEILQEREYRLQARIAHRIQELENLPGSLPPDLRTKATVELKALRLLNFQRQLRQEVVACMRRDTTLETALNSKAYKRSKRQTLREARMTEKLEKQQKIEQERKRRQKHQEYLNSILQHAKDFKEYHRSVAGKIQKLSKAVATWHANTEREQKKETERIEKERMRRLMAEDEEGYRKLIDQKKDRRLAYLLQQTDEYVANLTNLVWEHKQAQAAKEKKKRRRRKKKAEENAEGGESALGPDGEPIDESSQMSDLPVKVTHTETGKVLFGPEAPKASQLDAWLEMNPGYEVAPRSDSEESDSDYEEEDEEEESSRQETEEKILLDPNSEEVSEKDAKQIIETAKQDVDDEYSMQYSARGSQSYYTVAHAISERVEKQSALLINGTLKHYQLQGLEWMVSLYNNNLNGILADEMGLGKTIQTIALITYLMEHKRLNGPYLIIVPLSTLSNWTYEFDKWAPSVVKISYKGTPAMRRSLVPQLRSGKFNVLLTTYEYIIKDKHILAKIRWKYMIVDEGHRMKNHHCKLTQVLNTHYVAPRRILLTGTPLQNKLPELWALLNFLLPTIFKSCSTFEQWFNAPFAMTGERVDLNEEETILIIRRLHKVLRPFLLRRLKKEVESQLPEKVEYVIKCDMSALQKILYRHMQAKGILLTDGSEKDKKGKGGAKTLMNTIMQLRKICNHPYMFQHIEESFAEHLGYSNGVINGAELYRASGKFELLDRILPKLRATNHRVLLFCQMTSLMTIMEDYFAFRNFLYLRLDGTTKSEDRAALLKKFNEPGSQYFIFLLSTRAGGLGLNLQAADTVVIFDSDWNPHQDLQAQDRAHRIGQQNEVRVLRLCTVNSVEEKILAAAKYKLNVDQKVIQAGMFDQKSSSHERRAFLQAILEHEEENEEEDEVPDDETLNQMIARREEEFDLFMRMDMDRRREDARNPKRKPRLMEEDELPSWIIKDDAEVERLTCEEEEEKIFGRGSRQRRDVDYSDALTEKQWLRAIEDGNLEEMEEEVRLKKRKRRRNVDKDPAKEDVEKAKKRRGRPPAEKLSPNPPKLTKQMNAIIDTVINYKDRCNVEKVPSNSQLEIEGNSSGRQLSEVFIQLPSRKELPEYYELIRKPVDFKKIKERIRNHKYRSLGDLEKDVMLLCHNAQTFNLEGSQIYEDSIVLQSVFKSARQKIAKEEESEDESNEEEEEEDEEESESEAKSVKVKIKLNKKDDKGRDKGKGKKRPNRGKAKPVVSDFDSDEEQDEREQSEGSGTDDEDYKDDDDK

| Compound | IC50 [1] [µM] | IC50 (FL-SMARCA4) [µM] |
| --- | --- | --- |
| N#Cc1cc(NC(=O)c2cc(Cl)c(Cl)[nH]2)cn(CC(F)(F)F)c1=O [Compound 211] | 2.31 | 27.5 |
| Cn1c(C(=O)Nc2cc(F)c(=O)n(CC(F)(F)F)c2)cnc1Cl [Compound 212] | 8.52 | > 50 |
| Cn1c(C(=O)Nc2cc(C#N)c(=O)n(CCF)c2)cnc1Cl [Compound 213] | 17.9 | > 50 |
| Cn1c(C(=O)Nc2cc(C#N)c(=O)n(CC(F)(F)F)c2)cnc1Cl [Compound 214] | 29.9 | > 50 |
| N#Cc1cc(C(=O)Nc2cc(Cl)c(=O)n(CCF)c2)sc1Cl [Compound 215] | 0.071 | 0.492 |
| CCn1cc(NC(=O)c2cnc(NC3CCCC3)s2)ccc1=O [Compound 216] | > 50 | > 50 |
| CCn1cc(NC(=O)c2cnc(NC(C)C)s2)ccc1=O [Compound 217] | > 50 | > 50 |
| CCn1cc(NC(=O)c2csc(NC(C)C)n2)ccc1=O [Compound 218] | > 50 | > 50 |
| O=C(Nc1cc(F)c(=O)n(CCF)c1)c1cnc(NC2CCCC2)s1 [Compound 219] | > 50 | > 50 |
| Cn1c(C(=O)Nc2cc(F)c(=O)n(CC(F)(F)F)c2)cnc1C#N [Compound 221] | 1.45 | 6.28 |
| Nc1ncc(C(=O)Nc2cc(F)c(=O)n(CCF)c2)s1 [Compound 224] | > 50 | > 50 |
| CC(C)Nc1ncc(C(=O)Nc2cc(F)c(=O)n(CCF)c2)s1 [Compound 225] | > 50 | > 50 |
| NC(=O)c1ncc(C(=O)Nc2cc(F)c(=O)n(CCF)c2)s1 [Compound 226] | > 50 | > 50 |
| Cn1cc(C(=O)Nc2cc(F)c(=O)n(CCF)c2)sc1=O [Compound 227] | > 50 | > 50 |
| CNc1ncc(C(=O)Nc2cc(F)c(=O)n(CCF)c2)s1 [Compound 228] | > 50 | > 50 |
| N#Cc1cc(C(=O)Nc2cc(F)c(=O)n(CCF)c2)[nH]c1Cl [Compound 229] | 0.602 | 1.88 |
| Cn1nc(C(=O)Nc2cc(F)c(=O)n(CCF)c2)cc1Cl [Compound 230] | > 50 | > 50 |
| Cn1nc(Cl)cc1C(=O)Nc1cc(F)c(=O)n(CCF)c1 [Compound 233] | 7.63 | 36.4 |
| O=C(Nc1cc(F)c(=O)n(CCF)c1)c1c[nH]c(=O)s1 [Compound 239] | > 50 | > 50 |
| N#Cc1[nH]c(C(=O)Nc2cc(Cl)c(=O)n(CCF)c2)cc1Cl [Compound 241] | 0.112 | 0.653 |
| Cn1nc(C#N)cc1C(=O)Nc1cc(F)c(=O)n(CCF)c1 [Compound 243] | 1.64 | 11.7 |
| Cn1nc(C(=O)Nc2cc(F)c(=O)n(CCF)c2)cc1C#N [Compound 244] | > 50 | > 50 |
| N#Cc1cc(C(=O)Nc2cc(F)c(=O)n(CCF)c2)oc1Cl [Compound 245] | 2 | 12.1 |
| N#Cc1cc(C(=O)Nc2cc(F)c(=O)n(CCF)c2)oc1C#N [Compound 246] | 1.35 | 6.37 |

| Compound | IC50 [1] [µM] | IC50 (FL-SMARCA4) [µM] |
| --- | --- | --- |
| Cc1cc(C(=O)Nc2cc(F)c(=O)n(CCF)c2)on1 [Compound 250] | 25.4 | > 50 |
| O=C(Nc1cc(F)c(=O)n(CCF)c1)c1cnc(Br)o1 [Compound 252] | > 50 | > 50 |
| O=C(Nc1cc(F)c(=O)n(CCF)c1)c1cnc(Cl)o1 [Compound 253] | > 50 | > 50 |
| O=C(Nc1cc(F)c(=O)n(CCF)c1)c1cc(Cl)c(Cl)o1 [Compound 254] | 5.81 | 47.1 |
| O=C(Nc1cc(F)c(=O)n(CC(F)(F)F)c1)c1cc(Cl)c(Cl)o1 [Compound 255] | 16.7 | > 50 |
| O=C(Nc1cc(NCCN2CCOCC2)c(=O)n(CCF)c1)c1cc(Cl)c(Cl)s1 [Compound 256] | 6.34 | 21.4 |
| O=C(Nc1cc(NCCc2cccnc2)c(=O)n(CCF)c1)c1cc(Cl)c(Cl)s1 [Compound 257] | 19.1 | 23.7 |
| CC(=O)Nc1ncc(C(=O)Nc2cc(F)c(=O)n(CCF)c2)s1 [Compound 258] | > 50 | > 50 |
| O=C(Nc1cc(NCCN2CCCC2)c(=O)n(CCF)c1)c1cc(Cl)c(Cl)s1 [Compound 261] | 7.37 | 24.4 |
| CN(C)CCCNc1cc(NC(=O)c2cc(Cl)c(Cl)s2)cn(CCF)c1=O [Compound 262] | 15.3 | 25.9 |
| O=C(Nc1cc(NCCn2ccnc2)c(=O)n(CCF)c1)c1cc(Cl)c(Cl)s1 [Compound 263] | 21.6 | 27.4 |
| O=C(Nc1cc(F)c(=O)n(CCF)c1)c1cc(C(F)(F)F)no1 [Compound 264] | 6.23 | 38.5 |
| N#Cc1ncc(C(=O)Nc2cc(F)c(=O)n(CCF)c2)o1 [Compound 266] | > 50 | > 50 |
| O=C(Nc1cc(NCC2CCCN2)c(=O)n(CCF)c1)c1cc(Cl)c(Cl)s1 (stereo not drawn) [Compound 268] | 16.7 | 41.8 |
| O=C(Nc1cc(F)c(=O)n(CCF)c1)c1cnc(OC(F)F)s1 [Compound 269] | 5.19 | 24.9 |
| O=C(Nc1cc(F)c(=O)n(CCc2cn[nH]c2)c1)c1cc(Cl)c(Cl)s1 [Compound 270] | > 50 | > 50 |
| O=C(Nc1cc(F)c(=O)n(CCF)c1)c1cnc(-n2ccnc2)s1 [Compound 271] | > 50 | > 50 |
| CCn1cc(NC(=O)c2cc(-c3ccn(C)n3)c(Cl)s2)ccc1=O [Compound 272] | > 50 | > 50 |
| O=C(Nc1cc(F)c(=O)n(CC(F)(F)F)c1)c1cnc(Cl)o1 [Compound 273] | > 50 | > 50 |
| O=C(Nc1cc(F)c(=O)n(CCn2ccnc2)c1)c1cc(Cl)c(Cl)s1 [Compound 274] | > 50 | > 50 |
| O=C(Nc1cc(F)c(=O)n(CCF)c1)c1cc(Cl)c(C#CCN2CCCC2)s1 [Compound 276] | 28.7 | 47.1 |
| O=C(Nc1cc(F)c(=O)n(CCF)c1)c1cn(CC(F)(F)F)c(=O)s1 [Compound 277] | > 50 | > 50 |
| CNC(=O)c1sc(C(=O)Nc2cc(F)c(=O)n(CCF)c2)cc1Cl [Compound 278] | > 50 | > 50 |
| C/C=C/c1cc(C(=O)Nc2ccc(=O)n(CC)c2)sc1Cl [Compound 279] | 24 | > 50 |

| Compound | IC50 [1] [µM] | IC50 (FL-SMARCA4) [µM] |
| --- | --- | --- |
| CCn1cc(NC(=O)c2cc(-c3cn(C)cn3)c(Cl)s2)ccc1=O [Compound 280] | > 50 | > 50 |
| O=C(Nc1cc(F)c(=O)n(CCF)c1)c1cnc(-n2ccnc2C(F)(F)F)s1 [Compound 281] | > 50 | > 50 |
| CN(C)C(=O)c1sc(C(=O)Nc2cc(F)c(=O)n(CCF)c2)cc1Cl [Compound 282] | > 50 | > 50 |
| CCn1cc(NC(=O)c2cc(Cl)c(-c3ncco3)s2)ccc1=O [Compound 283] | 33.2 | > 50 |
| O=C(Nc1cc(F)c(=O)n(CCF)c1)c1cc(Cl)c(CO)s1 [Compound 284] | 3.21 | 30.6 |
| CCn1cc(NC(=O)c2cc(C#CCN(C)C)c(Cl)s2)ccc1=O [Compound 286] | 9.49 | 16.7 |
| CCn1cc(NC(=O)c2cc(C#Cc3cccnc3)c(Cl)s2)ccc1=O [Compound 287] | 1.28 | 3.66 |
| CS(=O)(=O)c1ccc(C(=O)Nc2cc(F)c(=O)n(CCF)c2)s1 [Compound 288] | > 50 | > 50 |
| O=C(Nc1cc(F)c(=O)n(CCF)c1)c1cc(Cl)c(C(O)C(F)(F)F)s1 (stereo not drawn) [Compound 289] | 10.6 | 42.6 |
| CNC(=O)c1cc(C(=O)Nc2cc(F)c(=O)n(CCF)c2)sc1Cl [Compound 291] | > 50 | > 50 |
| CCn1cc(NC(=O)c2cc(C#CCN)c(Cl)s2)ccc1=O [Compound 292] | 6.83 | 8.48 |
| N#Cc1sc(C(=O)Nc2ccc(=O)n(CC(F)F)c2)cc1Cl [Compound 293] | 0.127 | 0.3 |
| N#Cc1[nH]c(C(=O)Nc2ccc(=O)n(CC(F)F)c2)cc1Cl [Compound 294] | 0.117 | 0.387 |
| O=C(Nc1cc(F)c(=O)n(CC(F)F)c1)c1cc(Cl)c(C(F)F)s1 [Compound 296] | 0.094 | 0.52 |
| CN(C)C(=O)c1cc(C(=O)Nc2cc(F)c(=O)n(CCF)c2)sc1Cl [Compound 299] | > 50 | > 50 |
| CCn1cc(NC(=O)c2cc(C#CCO)c(Cl)s2)ccc1=O [Compound 300] | 2.74 | 5.96 |
| CS(=O)(=O)c1sc(C(=O)Nc2cc(F)c(=O)n(CCF)c2)cc1Cl [Compound 301] | 16.7 | > 50 |
| NC(=O)c1ccc(C(=O)Nc2cc(F)c(=O)n(CCF)c2)s1 [Compound 303] | > 50 | > 50 |
| CNC(=O)c1ccc(C(=O)Nc2cc(F)c(=O)n(CCF)c2)s1 [Compound 304] | > 50 | > 50 |
| CNC(=O)c1cc(C(=O)Nc2cc(F)c(=O)n(CCF)c2)sc1C(F)(F)F [Compound 305] | > 50 | > 50 |
| CN(C)C(=O)c1ccc(C(=O)Nc2cc(F)c(=O)n(CCF)c2)s1 [Compound 306] | > 50 | > 50 |
| CS(=O)(=O)c1cc(C(=O)Nc2cc(F)c(=O)n(CCF)c2)sc1Cl [Compound 307] | 0.94 | 3.27 |
| O=C(Nc1cc(F)c(=O)n(CCF)c1)c1cc(CO)c(Cl)s1 [Compound 308] | 23.3 | > 50 |
| NS(=O)(=O)c1sc(C(=O)Nc2cc(F)c(=O)n(CCF)c2)cc1Cl [Compound 309] | 29.6 | > 50 |
